Assay results: patent US20080071089A1, “Process for the Manufacture of Rabeprazole Sodium” (Lupin Limited, priority 2005, published 2008)

Tests used:
[1] = for Particle size: MALVERN mastersizer 2000, dispersant: light liquid paraffin; for mean particle diameter: amorphous solid as isolated and dried
[2] = versus product with particle size of above 100 μm
[3] = 75% relative humidity, 40° C.

## COCCCOc1ccnc(C[S+]([O-])c2nc3ccccc3[nH]2)c1C.[Na] (racemic) [Example 6 of U.S. Pat. No. 5045552, (±)sodium-2-[[[4-(3-methoxypropoxy)-3-methyl-pyridinyl]methyl]sulfinyl]1H-benzimidazole, reference compound]
[1]
  Particle size: 80 to 150 μm

## COCCCOc1ccnc(C[S+]([O-])c2nc3ccccc3[nH]2)c1C.[Na] (racemic) [Example 1, (±)sodium-2-[[[4-(3-methoxypropoxy)-3-methyl-pyridinyl]methyl]sulfinyl]1H-benzimidazole]
[1]
  Particle size: 10 to 50 μm
  mean particle diameter: 10 to 50 μm

## COCCCOc1ccnc(C[S+]([O-])c2nc3ccccc3[nH]2)c1C.[Na] (racemic) [Example 2, (±)sodium-2-[[[4-(3-methoxypropoxy)-3-methyl-pyridinyl]methyl]sulfinyl]1H-benzimidazole]
[1]
  Particle size: 15 to 55 μm
  mean particle diameter: 15 to 55 μm

## (±)sodium-2-[[[4-(3-methoxypropoxy)-3-methyl-pyridinyl]methyl]sulfinyl]1H-benzimidazole [amorphous rabeprazole sodium]
[2]
  bioavailability: better bioavailability
[3]
  stability: stable
[1]
  mean particle diameter: 10 to 55 μm
